PubChem BioAssay AID248 (DTP/NCI, 2004)
Values joined by “and” are separate entries in the source; they are usually repeats but may differ in a detail not shown here. Identical values can stand only once. Toxic doses and inconclusive results are not listed.

Test system: L1210 leukemia ip in BDF1 mice, survival T/C
Assay: NCI In Vivo Anticancer Drug Screen. Data for tumor model L1210 Leukemia (intraperitoneal) in B6D2F1 (BDF1) mice
Conditions: endpoint: mean survival time, higher = longer survival
Procedure, shortened: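 Ratio derived from survival: compound-dosed mice over vehicle-dosed mice, all bearing a transplantable tumor.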

[1] = dose: 100.0 mg/kg/injection, schedule: Q04DX002 (ip), vehicle: Klucel (hydroxypropylcellulose) (HPC)
[2] = dose: 200.0 mg/kg/injection, schedule: Q04DX002 (ip), vehicle: Klucel (hydroxypropylcellulose) (HPC)
[3] = dose: 400.0 mg/kg/injection, schedule: Q04DX002 (ip), vehicle: Klucel (hydroxypropylcellulose) (HPC)
[4] = dose: 100.0 mg/kg/injection, schedule: Q04DX003 (ip), vehicle: saline with Tween-80
[5] = dose: 200.0 mg/kg/injection, schedule: Q04DX003 (ip), vehicle: saline with Tween-80
[6] = dose: 400.0 mg/kg/injection, schedule: Q04DX003 (ip), vehicle: saline with Tween-80
[7] = dose: 100.0 mg/kg/injection, schedule: Q01DX001 (ip), vehicle: Klucel (hydroxypropylcellulose) (HPC)
[8] = dose: 100.0 mg/kg/injection, schedule: Q01DX009 (ip), vehicle: Klucel (hydroxypropylcellulose) (HPC)
[9] = dose: 200.0 mg/kg/injection, schedule: Q01DX001 (ip), vehicle: Klucel (hydroxypropylcellulose) (HPC)
[10] = dose: 200.0 mg/kg/injection, schedule: Q01DX009 (ip), vehicle: Klucel (hydroxypropylcellulose) (HPC)
[11] = dose: 400.0 mg/kg/injection, schedule: Q01DX009 (ip), vehicle: Klucel (hydroxypropylcellulose) (HPC)

## C#CC(=O)c1ccccc1
dose: 4.7 mg/kg/injection, schedule: Q01DX009 (ip), vehicle: saline with Tween-80
  T/C: 94 % of control
dose: 18.8 mg/kg/injection, schedule: Q01DX001 (ip), vehicle: saline
  T/C: 98 % of control
dose: 37.5 mg/kg/injection, schedule: Q01DX001 (ip), vehicle: saline
  T/C: 104 % of control

## NCCC1=NCCN1
[1]
  T/C: 100 % of control
[2]
  T/C: 104 % of control
[3]
  T/C: 104 % of control

## O=C(C=C(C(F)(F)F)C(F)(F)F)c1cccc2ccccc12
dose: 12.5 mg/kg/injection, schedule: Q01DX009 (ip), vehicle: gum acacia
  T/C: 107 % of control
dose: 25.0 mg/kg/injection, schedule: Q01DX009 (ip), vehicle: gum acacia
  T/C: 100 % of control
dose: 50.0 mg/kg/injection, schedule: Q01DX009 (ip), vehicle: gum acacia
  T/C: 100 % of control
dose: 100.0 mg/kg/injection, schedule: Q04DX003 (ip), vehicle: gum acacia
  T/C: 100 % of control
dose: 200.0 mg/kg/injection, schedule: Q04DX003 (ip), vehicle: gum acacia
  T/C: 97 % of control
dose: 400.0 mg/kg/injection, schedule: Q04DX003 (ip), vehicle: gum acacia
  T/C: 91 % of control

## O/N=C(\CC(O)(C(F)(F)F)C(F)(F)F)c1cccs1
dose: 50.0 mg/kg/injection, schedule: Q04DX003 (ip), vehicle: saline with Tween-80
  T/C: 98 % of control
[4]
  T/C: 98 % of control
[5]
  T/C: 98 % of control
[6]
  T/C: 95 % of control

## CC1=C(Cl)C(=N\S(=O)(=O)c2ccccc2)/c2ccccc2/C1=N/S(=O)(=O)c1ccccc1
dose: 100.0 mg/kg/injection, schedule: Q01DX001 (ip), vehicle: saline sonified
  T/C: 101 % of control
dose: 200.0 mg/kg/injection, schedule: Q01DX001 (ip), vehicle: saline sonified
  T/C: 100 % of control
dose: 400.0 mg/kg/injection, schedule: Q01DX001 (ip), vehicle: saline sonified
  T/C: 102 % of control

## CCOc1ccc(/C=N/NC(=O)c2ccccc2NC(=O)c2ccccc2Cl)cc1OC
[7]
  T/C: 93 % of control
[8]
  T/C: 97 % of control and 90 % of control
[1]
  T/C: 95 % of control and 103 % of control
dose: 100.0 mg/kg/injection, schedule: Q04DX003 (ip), vehicle: Klucel (hydroxypropylcellulose) (HPC)
  T/C: 92 % of control
[9]
  T/C: 98 % of control
[10]
  T/C: 90 % of control and 91 % of control
[2]
  T/C: 108 % of control and 92 % of control
dose: 200.0 mg/kg/injection, schedule: Q04DX003 (ip), vehicle: Klucel (hydroxypropylcellulose) (HPC)
  T/C: 97 % of control
dose: 400.0 mg/kg/injection, schedule: Q01DX001 (ip), vehicle: Klucel (hydroxypropylcellulose) (HPC)
  T/C: 93 % of control
[11]
  T/C: 94 % of control and 88 % of control
[3]
  T/C: 97 % of control and 92 % of control
dose: 400.0 mg/kg/injection, schedule: Q04DX003 (ip), vehicle: Klucel (hydroxypropylcellulose) (HPC)
  T/C: 92 % of control

## O=P(N1CC1)(N1CC1)C12CC3CC(CC(C3)C1)C2
dose: 25.0 mg/kg/injection, schedule: Q01DX009 (ip), vehicle: saline with Tween-80
  T/C: 170 % of control
dose: 50.0 mg/kg/injection, schedule: Q01DX009 (ip), vehicle: saline with Tween-80
  T/C: 243 % of control

## COc1ccc2nc3cc(Cl)ccc3c(NCCCSCCCl)c2n1
dose: 2.0 mg/kg/injection, schedule: Q01DX009 (ip), vehicle: saline
  T/C: 116 % of control
dose: 8.0 mg/kg/injection, schedule: Q01DX009 (ip), vehicle: saline
  T/C: 109 % of control

## COC(=O)C1(C(=O)OC)CCC=CC1=O
dose: 100.0 mg/kg/injection, schedule: Q01DX009 (ip), vehicle: saline with Tween-80
  T/C: 107 % of control
[4]
  T/C: 97 % of control
dose: 200.0 mg/kg/injection, schedule: Q01DX009 (ip), vehicle: saline with Tween-80
  T/C: 93 % of control
[5]
  T/C: 101 % of control
dose: 400.0 mg/kg/injection, schedule: Q01DX009 (ip), vehicle: saline with Tween-80
  T/C: 109 % of control
[6]
  T/C: 106 % of control

## Cc1ccc(NC(=O)Oc2ccc(-c3ccccc3)cc2Br)c(Br)c1
[8]
  T/C: 93 % of control
[10]
  T/C: 94 % of control
[11]
  T/C: 91 % of control

## COC(=O)c1ccc(OC)c2nc3c(C=O)c(OC)cc(OC)c3nc12
[4]
  T/C: 102 % of control
[5]
  T/C: 109 % of control
[6]
  T/C: 95 % of control

## Cc1nc(N)[nH]c(=O)c1CCCNC(=O)CCl (tested in a mixture with another compound)
dose: 50.0 mg/kg/injection, schedule: Q01DX001 (ip), vehicle: Klucel (hydroxypropylcellulose) (HPC)
  T/C: 114 % of control
[7]
  T/C: 108 % of control
[9]
  T/C: 100 % of control

## CN1CCC=C(CO)C1
dose: 100.0 mg/kg/injection, schedule: Q04DX003 (ip), vehicle: saline
  T/C: 97 % of control
dose: 200.0 mg/kg/injection, schedule: Q04DX003 (ip), vehicle: saline
  T/C: 107 % of control
dose: 400.0 mg/kg/injection, schedule: Q04DX003 (ip), vehicle: saline
  T/C: 103 % of control
